In one test the target is Mu-type opioid receptor (Rattus norvegicus, UniProt P33535). Description: Displacement of [3H]DAMGO from rat mu opiod receptor. A general note: In a radioligand displacement assay an active substance lowers the binding of a labelled ligand.
The target of test [1] is Delta-type opioid receptor (Homo sapiens, UniProt P41143). The test is described as follows: Displacement of [3H]DPDPE from human delta opiod receptor.
Test [2] has as its target T1, B2 bradykinin receptor (Cavia porcellus, UniProt O70526).
T1 sequence (O70526 whole entry): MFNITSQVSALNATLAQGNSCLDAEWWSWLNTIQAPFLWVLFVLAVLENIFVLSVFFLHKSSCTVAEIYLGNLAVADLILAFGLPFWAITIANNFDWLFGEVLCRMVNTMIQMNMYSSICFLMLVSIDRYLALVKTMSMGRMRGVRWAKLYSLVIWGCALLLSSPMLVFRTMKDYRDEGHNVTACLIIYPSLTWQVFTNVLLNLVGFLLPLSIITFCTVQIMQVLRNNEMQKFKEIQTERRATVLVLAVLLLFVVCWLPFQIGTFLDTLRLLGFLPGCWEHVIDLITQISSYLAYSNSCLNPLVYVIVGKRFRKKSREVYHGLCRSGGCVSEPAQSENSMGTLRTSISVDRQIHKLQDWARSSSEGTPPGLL
Description: Binding affinity to B2R in guinea pig ileum membranes. It is filed as cell membranes, Membrane.

For test [3], the target named is T2, B2 bradykinin receptor (Rattus norvegicus, UniProt P25023).
T2 sequence (P25023 whole entry): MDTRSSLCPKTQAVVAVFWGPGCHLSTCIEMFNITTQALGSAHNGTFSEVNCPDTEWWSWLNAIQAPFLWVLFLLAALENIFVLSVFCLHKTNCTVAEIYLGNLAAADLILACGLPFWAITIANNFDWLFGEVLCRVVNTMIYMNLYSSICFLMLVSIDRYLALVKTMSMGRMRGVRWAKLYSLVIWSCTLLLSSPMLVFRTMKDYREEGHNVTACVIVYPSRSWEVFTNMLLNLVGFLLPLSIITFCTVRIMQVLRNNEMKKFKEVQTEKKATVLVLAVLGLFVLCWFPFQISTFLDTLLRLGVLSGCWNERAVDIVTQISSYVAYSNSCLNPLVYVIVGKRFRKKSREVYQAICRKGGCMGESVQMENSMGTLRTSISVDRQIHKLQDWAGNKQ
The test is described as follows: Displacement of [3H]BK from B2R in rat brain membranes by liquid scintillation counting in based radioligand competition assay. It is filed as cell membranes, Membrane.

Test [4] addresses T1, B2 bradykinin receptor. Description: Antagonist activity against B2R in Hartley guinea pig ileum assessed as reduction in electrically-induced response. It is filed as tissue-based.

Square brackets hold non-standard residues; d marks the D form. Side chains are listed from the residue outwards. Peptide text beside a SMILES is read from it. Oic = O=C(O)[C@@H]1C[C@@H]2CCCC[C@@H]2N1; Hyp = O=C(O)[C@@H]1C[C@@H](O)CN1; dTic = O=C(O)[C@H]1Cc2ccccc2CN1; 2Thi = N[C@@H](Cc1cccs1)C(=O)O; Dap = NC[C@H](N)C(=O)O

From ChEMBL document CHEMBL3616445, “Design, synthesis and biological evaluation of multifunctional ligands targeting opioid and bradykinin 2 receptors” (Bioorg Med Chem Lett, 2015) come the findings set out here.

Sequence of Mu-type opioid receptor (P33535 whole entry): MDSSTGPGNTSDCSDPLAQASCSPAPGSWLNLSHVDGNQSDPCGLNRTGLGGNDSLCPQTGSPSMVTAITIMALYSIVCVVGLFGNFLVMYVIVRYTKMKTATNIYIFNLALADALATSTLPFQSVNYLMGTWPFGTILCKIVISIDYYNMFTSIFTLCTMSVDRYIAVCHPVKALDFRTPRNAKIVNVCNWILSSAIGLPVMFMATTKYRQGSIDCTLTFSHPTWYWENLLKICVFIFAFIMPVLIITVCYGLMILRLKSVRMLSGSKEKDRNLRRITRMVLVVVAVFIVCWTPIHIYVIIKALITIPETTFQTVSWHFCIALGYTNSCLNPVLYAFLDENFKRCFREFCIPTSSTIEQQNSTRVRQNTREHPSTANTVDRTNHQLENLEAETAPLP
Sequence of Delta-type opioid receptor (P41143 whole entry): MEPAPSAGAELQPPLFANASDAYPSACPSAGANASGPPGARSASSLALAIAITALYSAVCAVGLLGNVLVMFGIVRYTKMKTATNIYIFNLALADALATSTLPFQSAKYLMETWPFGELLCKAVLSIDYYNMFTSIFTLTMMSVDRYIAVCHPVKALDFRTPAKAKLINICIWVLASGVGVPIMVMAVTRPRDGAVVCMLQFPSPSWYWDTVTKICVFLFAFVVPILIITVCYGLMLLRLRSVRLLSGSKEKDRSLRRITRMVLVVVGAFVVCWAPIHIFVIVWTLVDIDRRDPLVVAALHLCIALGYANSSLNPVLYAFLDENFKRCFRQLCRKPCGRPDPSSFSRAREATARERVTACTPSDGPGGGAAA

On Mu-type opioid receptor, `C[C@@H](NC(=O)[C@@H](N)Cc1ccc(O)cc1)C(=O)NCC(=O)N[C@@H](Cc1ccccc1)C(=O)NCCCCCCCC(=O)NC[C@H](N)C(=O)N[C@H](CCCNC(=N)N)C(=O)N[C@@H](CCCNC(=N)N)C(=O)N1CCC[C@H]1C(=O)N1C[C@H](O)C[C@H]1C(=O)NCC(=O)N[C@@H](Cc1cccs1)C(=O)N[C@@H](CO)C(=O)N1Cc2ccccc2C[C@@H]1C(=O)N1[C@H](C(=O)N[C@@H](CCCNC(=N)N)C(=O)O)C[C@@H]2CCCC[C@@H]21` had an IC50 of 0.813 nM and a Ki of 0.3 nM.
As to `C[C@@H](NC(=O)[C@@H](N)Cc1ccc(O)cc1)C(=O)NCC(=O)N[C@@H](Cc1ccccc1)C(=O)NCCCCCCCC(=O)N[C@H](CCCNC(=N)N)C(=O)N[C@@H](CCCNC(=N)N)C(=O)N1CCC[C@H]1C(=O)N1C[C@H](O)C[C@H]1C(=O)NCC(=O)N[C@@H](Cc1cccs1)C(=O)N[C@@H](CO)C(=O)N1Cc2ccccc2C[C@@H]1C(=O)N1[C@H](C(=O)N[C@@H](CCCNC(=N)N)C(=O)O)C[C@@H]2CCCC[C@@H]21`, the values for the IC50 (in test [1]; on Mu-type opioid receptor) were 4.68 nM and 1.23 nM, respectively.
For `C[C@@H](NC(=O)[C@@H](N)Cc1ccc(O)cc1)C(=O)NCC(=O)N[C@@H](Cc1ccccc1)C(=O)NCCC(=O)N[C@H](CCCNC(=N)N)C(=O)N[C@@H](CCCNC(=N)N)C(=O)N1CCC[C@H]1C(=O)N1C[C@H](O)C[C@H]1C(=O)NCC(=O)N[C@@H](Cc1cccs1)C(=O)N[C@@H](CO)C(=O)N1Cc2ccccc2C[C@@H]1C(=O)N1[C@H](C(=O)N[C@@H](CCCNC(=N)N)C(=O)O)C[C@@H]2CCCC[C@@H]21` the same measures were 91.2 nM and 3.09 nM.
For `C[C@@H](NC(=O)[C@@H](N)Cc1ccc(O)cc1)C(=O)NCC(=O)N[C@@H](Cc1ccccc1)C(=O)NC[C@H](N)C(=O)N[C@H](CCCNC(=N)N)C(=O)N[C@@H](CCCNC(=N)N)C(=O)N1CCC[C@H]1C(=O)N1C[C@H](O)C[C@H]1C(=O)NCC(=O)N[C@@H](Cc1cccs1)C(=O)N[C@@H](CO)C(=O)N1Cc2ccccc2C[C@@H]1C(=O)N1[C@H](C(=O)N[C@@H](CCCNC(=N)N)C(=O)O)C[C@@H]2CCCC[C@@H]21`, at Mu-type opioid receptor, the IC50 was 1.41 nM and the affinity, expressed as Ki, was 0.6 nM.
As for `C[C@@H](NC(=O)[C@@H](N)Cc1ccc(O)cc1)C(=O)NCC(=O)N[C@@H](Cc1ccccc1)C(=O)NC[C@H](NC(=O)[C@H](Cc1cccs1)NC(=O)CNC(=O)[C@@H]1C[C@@H](O)CN1C(=O)[C@@H]1CCCN1C(=O)[C@H](CCCNC(=N)N)NC(=O)[C@H](N)CCCNC(=N)N)C(=O)N1Cc2ccccc2C[C@@H]1C(=O)N1[C@H](C(=O)N[C@@H](CCCNC(=N)N)C(=O)O)C[C@@H]2CCCC[C@@H]21` (H-[dR]RP[Hyp]G[2Thi][Dap]([Phe-Gly-dA-Tyr])[dTic][Oic]R-OH), the figures for the IC50 (in test [1]; on Mu-type opioid receptor) were 0.603 nM and 15.5 nM, respectively.
For `C[C@@H](NC(=O)[C@@H](N)Cc1ccc(O)cc1)C(=O)NCC(=O)N[C@@H](Cc1ccccc1)C(=O)NC[C@H](NC(=O)[C@@H]1CCCN1C(=O)[C@H](CCCNC(=N)N)NC(=O)[C@H](N)CCCNC(=N)N)C(=O)NCC(=O)N[C@@H](Cc1cccs1)C(=O)N[C@@H](CO)C(=O)N1Cc2ccccc2C[C@@H]1C(=O)N1[C@H](C(=O)N[C@@H](CCCNC(=N)N)C(=O)O)C[C@@H]2CCCC[C@@H]21` the same measures were 6.76 nM and 4.79 nM.
Consider `NC(N)=NCCC[C@@H](N)C(=O)N[C@@H](CCCN=C(N)N)C(=O)N1CCC[C@H]1C(=O)N1C[C@H](O)C[C@H]1C(=O)NCC(=O)N[C@@H](Cc1cccs1)C(=O)N[C@@H](CO)C(=O)N1Cc2ccccc2C[C@@H]1C(=O)N1[C@H](C(=O)N[C@@H](CCCN=C(N)N)C(=O)O)C[C@@H]2CCCC[C@@H]21`, for which the Ki at B2 bradykinin receptor [2] was 1 nM; on B2 bradykinin receptor [3], above 10000 nM.
In test [1], `C[C@@H](NC(=O)[C@@H](N)Cc1ccc(O)cc1)C(=O)NCC(=O)N[C@@H](Cc1ccccc1)C(=O)NC[C@H](N)C(=O)NCCC(=O)N[C@H](CCCNC(=N)N)C(=O)N[C@@H](CCCNC(=N)N)C(=O)N1CCC[C@H]1C(=O)N1C[C@H](O)C[C@H]1C(=O)NCC(=O)N[C@@H](Cc1cccs1)C(=O)N[C@@H](CO)C(=O)N1Cc2ccccc2C[C@@H]1C(=O)N1[C@H](C(=O)N[C@@H](CCCNC(=N)N)C(=O)O)C[C@@H]2CCCC[C@@H]21` displayed a Ki of 7 nM and a pIC50 of 7.77. At Mu-type opioid receptor, this compound displayed a Ki of 0.5 nM and a pIC50 of 8.94.
Consider `CSCC[C@H](NC(=O)[C@H](Cc1ccccc1)NC(=O)[C@@H](C)NC(=O)[C@@H](N)Cc1ccc(O)cc1)C(=O)N[C@H](CCCNC(=N)N)C(=O)N[C@@H](CCCNC(=N)N)C(=O)N1CCC[C@H]1C(=O)N1C[C@H](O)C[C@H]1C(=O)NCC(=O)N[C@@H](Cc1cccs1)C(=O)N[C@@H](CO)C(=O)N1Cc2ccccc2C[C@@H]1C(=O)N1[C@H](C(=O)N[C@@H](CCCNC(=N)N)C(=O)O)C[C@@H]2CCCC[C@@H]21`, for which the IC50 is 17000 nM in test [1], 155 nM on Mu-type opioid receptor and 1.8 nM on B2 bradykinin receptor [4]. Besides, the Ki in test [1] was determined as 6900 nM; at Mu-type opioid receptor, 70 nM; at B2 bradykinin receptor [3] it was 5200 nM.
With `C[C@@H](NC(=O)[C@@H](N)Cc1ccc(O)cc1)C(=O)NCC(=O)N[C@@H](Cc1ccccc1)C(=O)N[C@H](CCCNC(=N)N)C(=O)N[C@@H](CCCNC(=N)N)C(=O)N1CCC[C@H]1C(=O)N1C[C@H](O)C[C@H]1C(=O)NCC(=O)N[C@@H](Cc1cccs1)C(=O)N[C@@H](CO)C(=O)N1Cc2ccccc2C[C@@H]1C(=O)N1[C@H](C(=O)N[C@@H](CCCNC(=N)N)C(=O)O)C[C@@H]2CCCC[C@@H]21`, the figures for the IC50 (in test [1]; at Mu-type opioid receptor; on B2 bradykinin receptor [4]) were 4170 nM, 22.9 nM and 1.7 nM, respectively. This compound also registered a Ki on B2 bradykinin receptor [3] above 10000 nM.
For the compound `N=C(N)NCCC[C@H](NC(=O)[C@@H]1C[C@@H]2CCCC[C@@H]2N1C(=O)[C@H]1Cc2ccccc2CN1C(=O)[C@H](CO)NC(=O)[C@H](Cc1cccs1)NC(=O)CNC(=O)[C@@H]1C[C@@H](O)CN1C(=O)[C@@H]1CCCN1C(=O)[C@H](CCCNC(=N)N)NC(=O)[C@@H](CCCNC(=N)N)NC(=O)[C@H](Cc1ccccc1)NC(=O)[C@@H]1CCCN1C(=O)[C@@H](N)Cc1ccc(O)cc1)C(=O)O`, the Ki in test [1] was above 10000 nM; at Mu-type opioid receptor, 2300 nM; at B2 bradykinin receptor [3] it was above 10000 nM. This compound displayed a pIC50 on Mu-type opioid receptor of 5.29.
`N=C(N)NCCC[C@H](NC(=O)[C@@H]1C[C@@H]2CCCC[C@@H]2N1C(=O)[C@H]1Cc2ccccc2CN1C(=O)[C@H](CO)NC(=O)[C@H](Cc1cccs1)NC(=O)CNC(=O)[C@@H]1C[C@@H](O)CN1C(=O)[C@@H]1CCCN1C(=O)[C@H](CCCNC(=N)N)NC(=O)[C@@H](CCCNC(=N)N)NC(=O)[C@H](Cc1ccccc1)NC(=O)[C@H](Cc1ccccc1)NC(=O)[C@@H]1CCCN1C(=O)[C@@H](N)Cc1ccc(O)cc1)C(=O)O`: the values for the Ki (in test [1]; on Mu-type opioid receptor; on B2 bradykinin receptor [3]) were above 10000 nM, 480 nM and above 10000 nM, respectively. Also, the pIC50 at Mu-type opioid receptor was found to be 5.97. For the same compound, the IC50 at B2 bradykinin receptor [4] was 1.9 nM.

For orientation: IC50 means the concentration at which inhibition is half-maximal. One may read the Ki as a dissociation constant, usually derived from enzyme kinetics or from competition with a known ligand. A word on the pIC50: it is the negative decadic logarithm of the IC50, by convention in mol/L.
